For series [1], the system named is influenza varieties. Particulars: laboratory cells infected with influenza varieties; cited from earlier work.
For series [2] the following is noted: cited from earlier work.
The conditions of series [3]: 1 gram oral, chicken serum, 280 nm and 425 nm.
Procedure: Three chickens (Rhode Island Red) that were each 2 years old weighing 5 pounds were selected, and 1 ml of blood was removed from the wing vein for baseline measurements. The blood was allowed to clot and the plasma was removed by centrifugation for subsequent baseline analysis. The chickens were allowed to rest overnight. The contents of each of the respective syringes were then administered to separate chickens via the mouth, ensuring that the contents were consumed. Blood was removed at 2, 4, and 24 hours from each bird and allowed to clot.
Series [4] can be described thus: DPPH radical scavenging antioxidant assay. Particulars: 0.125-0.50 mg/mL in ethanol, 30 min at RT, 517 nm; ranking among the three. Type of series: biochemical. (DPPH is a stable violet radical that fades when it is reduced.)
Procedure: The reaction mixture was mixed thoroughly and left in the dark at RT for 30 min. The absorbance of the mixture was measured spectrophotometrically at 517 nm. Trolox was used as reference. Percentage DPPH radical scavenging activity was calculated by the following equation:
[formula] • Acs: Blank 1—Blank 2 • As: Absorbance of samples—Blank 2 Then % of inhibition was plotted against concentration.

On to `COc1cc(/C=C/C(=O)CC(=O)/C=C/c2ccc(O)c(OC)c2)ccc1O` [curcumin], for which the “reduction of viral replication” value in series [1] is “over 90%”.
In the case of `COc1cc(CCC(=O)CC(=O)CCc2ccc(O)c(OC)c2)ccc1O` [tetrahydrocurcumin], the water solubility result in series [2] is reported as “not very water soluble”. Besides, the “HPLC peaks in serum at the 2-hour, 4-hour, and 24-hour timepoints” value in series [3] is reported as “could be seen”. Also, in series [4], the “antioxidant activity (DPPH radical scavenging, FIG. 16)” value is recorded as “higher antioxidant activity than curcumin but less than the tetrahydrocurcumin-Zn-curcumin”.
